Assay results published in US10898471B2, “Methods of inhibiting leukotriene A4 hydrolase” (Celltaxis, LLC, priority 2013, dated 2021).

Columns and labels:
[1] = human pharmacokinetics: plasma concentration over time after oral dose; type: in vivo
Experimental: The two sets of dashed, horizontal lines indicate the plasma concentration that is three-times (3×) the IC50 and the plasma concentration that is one-time (1×) the IC50 of 4-{[(1S,4S)-5-({4-[4-oxazol-2-yl-phenoxy]phenyl}methyl)-2,5-diazabicyclo[2.2.1]heptan-2-yl]methyl}benzoic acid in human blood.
(§1) Thus, oral human doses as low as 10 mg can provide therapeutic benefit in the current formulation and, with improved formulation, doses as low as 5 mg can achieve therapeutic levels of the compound in blood.

[2] = molecular target: T1, LTA4-h (Homo sapiens, UniProt P09960); assay: human whole blood ex vivo assay: A23187-stimulated LTB4 production measured by ELISA; type: cell-based; conditions: IC50 in human whole blood
T1 construct: in human whole blood has been determined using an ex vivo assay; from tissue; host or cells: human whole blood (male and female donors)
T1 sequence (P09960 1-611): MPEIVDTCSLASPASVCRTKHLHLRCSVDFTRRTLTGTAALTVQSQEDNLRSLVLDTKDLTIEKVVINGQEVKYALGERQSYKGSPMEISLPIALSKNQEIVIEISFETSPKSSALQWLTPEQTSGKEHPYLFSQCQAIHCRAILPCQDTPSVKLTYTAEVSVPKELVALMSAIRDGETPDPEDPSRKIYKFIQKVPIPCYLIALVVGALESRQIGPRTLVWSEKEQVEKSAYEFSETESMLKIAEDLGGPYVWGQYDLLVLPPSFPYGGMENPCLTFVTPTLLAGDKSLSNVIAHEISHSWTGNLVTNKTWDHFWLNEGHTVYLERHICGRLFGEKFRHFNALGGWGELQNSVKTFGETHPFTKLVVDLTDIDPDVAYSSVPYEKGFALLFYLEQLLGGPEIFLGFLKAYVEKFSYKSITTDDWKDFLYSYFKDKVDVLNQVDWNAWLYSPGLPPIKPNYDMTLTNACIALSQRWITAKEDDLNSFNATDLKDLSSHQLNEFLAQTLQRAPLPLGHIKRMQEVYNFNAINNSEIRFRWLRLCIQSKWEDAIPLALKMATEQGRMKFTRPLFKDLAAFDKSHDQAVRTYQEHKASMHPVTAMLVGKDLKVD
Excerpt: The IC50 of 4-{[(1S,4S)-5-({4-[4-oxazol-2-yl-phenoxy]phenyl}methyl)-2,5-diazabicyclo[2.2.1]heptan-2-yl]methyl}benzoic acid in human whole blood has been determined using an ex vivo assay. The human whole blood assay has been described in Penning et al (2000), Structure and Activity Relationship Studies on 1-[2-(4-Phenylphenoxy)ethyl]pyrrolidone (SC-22716), a Potent Inhibitor of Leukotriene A4 (LTA4) hydrolase, J. Med. Chem. 43: 721-735, the contents of which are expressly incorporated by reference herein. In this assay, LTB4 production is stimulated by addition of calcium ionophone (A23187) in the absence or presence of varied concentrations of 4-{[(1S,4S)-5-({4-[4-oxazol-2-yl-phenoxy]phenyl}methyl)-2,5-diazabicyclo[2.2.1]heptan-2-yl]methyl}benzoic acid. The ability of 4-{[(1S,4S)-5-({4-[4-oxazol-2-yl-phenoxy]phenyl}methyl)-2,5-diazabicyclo[2.2.1]heptan-2-yl]methyl}benzoic acid to reduce is LTB4 production is determined by ELISA. This ELISA assay was performed using the Leukotriene B4 EIA Kit available from Cayman Chemical (Item No. 520111) and the assay was performed according to the manufacturer's instructions.
as §1

O=C(O)c1ccc(CN2C[C@@H]3C[C@H]2CN3Cc2ccc(Oc3ccc(-c4ncco4)cc3)cc2)cc1 [4-{[(1S,4S)-5-({4-[4-oxazol-2-yl-phenoxy]phenyl}methyl)-2,5-diazabicyclo[2.2.1]heptan-2-yl]methyl}benzoic acid]
peak plasma concentration relative to the IC50 ([1]; 5 mg oral dose): nearly achieves the IC50 | time for which the blood plasma level exceeds the IC50 ([1]; 15 mg oral dose): over 12 hours | time for which the blood plasma level exceeds 3-times the IC50 ([1]; 50 mg oral dose): over 24 hours | IC50 ([2]; female blood): 68 nM | IC50 ([2]; human whole blood, LTB4 production stimulated by calcium ionophore A23187): ~62.3 nM | IC50 ([2]; male blood): 60 nM
